Data as given in patent EP4667464A1 (Cyrus Therapeutics Inc., priority 2023, dated 2024).
Where two headings read alike, the source gives them in different places.

Legend:
[1] = molecular target: T1, SOS1 (Homo sapiens, UniProt Q07889); test: SOS-catalyzed nucleotide exchange assay (HTRF, SOS1-mediated GTP loading of KRAS G12D); format: biochemical
T1 construct: HIS-SOS1cat (160 nM; Cytoskeleton, US); His (N); purchased Cytoskeleton
T1 sequence (Q07889 564-1049 limits assumed): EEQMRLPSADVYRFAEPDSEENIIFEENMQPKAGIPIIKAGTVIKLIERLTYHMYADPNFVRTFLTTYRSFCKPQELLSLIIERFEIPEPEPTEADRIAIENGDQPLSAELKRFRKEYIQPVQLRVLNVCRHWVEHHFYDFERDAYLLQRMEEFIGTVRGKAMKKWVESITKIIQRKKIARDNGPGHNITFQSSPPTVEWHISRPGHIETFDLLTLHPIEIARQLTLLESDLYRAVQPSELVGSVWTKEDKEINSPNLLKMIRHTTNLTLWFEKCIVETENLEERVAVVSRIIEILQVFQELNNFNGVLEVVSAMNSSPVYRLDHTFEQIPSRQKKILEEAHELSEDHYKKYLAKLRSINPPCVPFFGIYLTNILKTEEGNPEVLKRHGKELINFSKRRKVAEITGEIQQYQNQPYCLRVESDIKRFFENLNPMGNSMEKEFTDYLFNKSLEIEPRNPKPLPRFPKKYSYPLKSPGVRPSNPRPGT

[2] = molecular target: T2, KRAS G12C::SOS1 (Homo sapiens, UniProt Q07889); test: KRAS G12C::SOS1 protein-protein interaction (PPI) inhibition assay (HTRF); format: binding
T2 construct: purchased CISBIO 64KRASG12PEH
T2 sequence (Q07889 1-1333): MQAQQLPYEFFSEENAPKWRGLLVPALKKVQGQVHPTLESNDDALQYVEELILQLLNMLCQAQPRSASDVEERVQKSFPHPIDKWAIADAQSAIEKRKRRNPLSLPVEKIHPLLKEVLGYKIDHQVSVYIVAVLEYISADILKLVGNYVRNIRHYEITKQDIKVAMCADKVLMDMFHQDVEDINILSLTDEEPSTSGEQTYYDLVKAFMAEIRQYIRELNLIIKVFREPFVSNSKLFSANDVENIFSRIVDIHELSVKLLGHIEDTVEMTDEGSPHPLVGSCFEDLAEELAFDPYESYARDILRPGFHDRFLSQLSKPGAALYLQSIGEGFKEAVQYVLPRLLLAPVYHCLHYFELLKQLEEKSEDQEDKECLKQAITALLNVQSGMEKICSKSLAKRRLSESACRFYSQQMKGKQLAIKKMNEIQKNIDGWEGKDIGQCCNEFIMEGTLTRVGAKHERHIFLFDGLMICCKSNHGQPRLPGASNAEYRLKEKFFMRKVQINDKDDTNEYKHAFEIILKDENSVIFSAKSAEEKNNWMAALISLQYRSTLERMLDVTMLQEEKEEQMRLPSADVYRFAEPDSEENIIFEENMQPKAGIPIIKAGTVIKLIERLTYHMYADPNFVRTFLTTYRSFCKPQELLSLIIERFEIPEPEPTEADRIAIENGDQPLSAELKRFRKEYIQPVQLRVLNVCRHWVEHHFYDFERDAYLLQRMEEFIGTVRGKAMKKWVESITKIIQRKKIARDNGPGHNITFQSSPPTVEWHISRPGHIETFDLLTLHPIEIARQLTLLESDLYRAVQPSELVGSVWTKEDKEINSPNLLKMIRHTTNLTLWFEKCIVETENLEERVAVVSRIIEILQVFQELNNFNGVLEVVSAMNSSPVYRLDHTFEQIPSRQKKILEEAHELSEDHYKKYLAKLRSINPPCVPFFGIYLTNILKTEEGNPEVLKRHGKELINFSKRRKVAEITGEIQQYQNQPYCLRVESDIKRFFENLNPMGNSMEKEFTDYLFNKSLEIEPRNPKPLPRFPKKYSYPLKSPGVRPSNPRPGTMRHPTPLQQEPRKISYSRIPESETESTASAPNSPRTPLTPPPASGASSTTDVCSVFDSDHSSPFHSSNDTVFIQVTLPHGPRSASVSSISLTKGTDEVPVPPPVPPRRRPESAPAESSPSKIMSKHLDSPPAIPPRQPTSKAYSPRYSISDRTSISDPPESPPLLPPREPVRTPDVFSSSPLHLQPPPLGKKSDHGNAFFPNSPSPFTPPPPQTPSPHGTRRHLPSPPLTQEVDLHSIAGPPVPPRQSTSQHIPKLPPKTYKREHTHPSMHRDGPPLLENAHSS
Summary of the method: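 Compounds, at eight 3-fold dilutions from 3 µM, were mixed with GTP-loaded Tag1-KRAS G12C, Tag2-SOS1 and a terbium-cryptate donor plus XL665 acceptor antibody pair. After 2 h at room temperature, time-resolved FRET reported the KRAS–SOS1 interaction.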

[3] = GST-KRAS G12D, HIS-SOS1cat, compound 128 pM to 10 µM, read-out: SOS-catalyzed nucleotide exchange assay
[4] = 8 concentrations from 3 µM, three replicates, read-out: KRAS G12C::SOS1 PPI

| IC50 [1, 3] [nM] | IC50 [2, 4] [nM] | SMILES | IC50 [1] [nM] | IC50 [2] [nM] |
| --- | --- | --- | --- | --- |
|  |  | C[C@@H](NC(=O)c1ccc(=O)n(-c2cncc(-c3cnnn3[C@H]3CC3(F)F)c2)n1)c1cccc(C(F)(F)CO)c1F (single isomer, unassigned) [Example 25] | < 50 | < 50 |
| < 50 | < 50 | CC(=O)N1CC(n2nncc2-c2cncc(-n3nc(C(=O)N[C@H](C)c4cccc(C(F)(F)F)c4F)ccc3=O)c2)C1 [Example 20-10, (R)-1-(5-(1-(1-acetylazetidin-3-yl)-1H-1,2,3-triazol-5-yl)pyridin-3-yl)-N-(1-(2-fluoro-3-(trifluoromethyl)phenyl)ethyl)-6-oxo-1,6-dihydropyridazine-3-carboxamide] |  |  |
| < 50 | < 50 | [2H]C([2H])([2H])[C@@H](NC(=O)c1ccc(=O)n(-c2cncc(-c3cnnn3C3CC3)c2)n1)c1cccc(C(F)(F)CO)c1F [Example 1-60, 1-[5-(1-cyclopropyl-1H-1,2,3-triazol-5-yl)-3-pyridyl]-6-oxo-N-[(1R)-2,2,2-trideuterio-1-[3-(1,1-difluoro-2-hydroxy-ethyl)-2-fluoro-phenyl]ethyl]pyridazine-3-carboxamide] |  |  |
| < 50 | 50 to 150 | C[C@@H](O)c1cc(C(=O)N[C@H](C)c2cccc(C(F)(F)F)c2F)nn(-c2cncc(-c3cnnn3C)c2)c1=O (single isomer, unassigned) [Example 9] |  |  |
| 50 to 150 | > 150 | C[C@@H](NC(=O)c1cc(Cl)c(=O)n(-c2cncc(-c3c(Cl)nnn3C)c2)n1)c1cccc(C(F)F)c1F [Example 12, N-{(R)-1-[3-(difluoromethyl)-2-fluorophenyl]ethyl}-5-chloro-1-[5-(4-chloro-1-methyl-1H-1,2,3-triazol-5-yl)-3-pyridyl]-6-oxo-1,6-dihydropyridazine-3-carboxamide] |  |  |
| < 50 | < 50 | C[C@@H](NC(=O)c1ccc(=O)n(-c2cncc(-c3cnnn3C3CCC3)c2)n1)c1cccc(C(F)(F)CO)c1F [Example 1-55, 1-[5-(1-cyclobutyl-1H-1,2,3-triazol-5-yl)-3-pyridyl]-N-[(1R)-1-[3-(1,1-difluoro-2-hydroxy-ethyl)-2-fluoro-phenyl]ethyl]-6-oxo-pyridazine-3-carboxamide] |  |  |
| < 50 | 50 to 150 | C[C@@H](NC(=O)c1ccc(=O)n(-c2cncc(-c3cnnn3C3COC3)c2)n1)c1cccc(C(F)(F)F)c1F [Example 1-57, 1-[5-[1-(oxetan-3-yl)triazol-5-yl]-3-pyridyl]-6-oxo-N-[(1R)-1-[2-fluoro-3-(trifluoromethyl)phenyl]ethyl]pyridazine-3-carboxamide] |  |  |
| 50 to 150 | 50 to 150 | CCn1nncc1-c1cc(-n2nc(C(=O)N[C@H](C)c3cccc(C(F)(F)F)c3F)ccc2=O)cnc1C [Example 1-27, 1-[5-(3-ethyltriazol-4-yl)-6-methyl-3-pyridyl]-N-[(1R)-1-[2-fluoro-3-(trifluoromethyl)phenyl]ethyl]-6-oxo-pyridazine-3-carboxamide] |  |  |
| 50 to 150 | < 50 | CCc1cc(C(=O)N[C@H](C)c2cccc(C(F)(F)F)c2F)nn(-c2cncc(-c3cnnn3C)c2)c1=O [Example 1-66, N-{(R)-1-[2-fluoro-3-(trifluoromethyl)phenyl]ethyl}-5-ethyl-1-[5-(1-methyl-1H-1,2,3-triazol-5-yl)-3-pyridyl]-6-oxo-1,6-dihydropyridazine-3-carboxamide] |  |  |
| < 50 | < 50 | C[C@@H](NC(=O)c1ccc(=O)n(-c2cncc(-c3cnnn3C3CN(C)C3)c2)n1)c1cccc(C(F)(F)F)c1F [Example 20, N-{(R)-1-[2-fluoro-3-(trifluoromethyl)phenyl]ethyl}-1-{5-[1-(1-methyl-3-azetidinyl)-1H-1,2,3-triazol-5-yl]-3-pyridyl}-6-oxo-1,6-dihydropyridazine-3-carboxamide] |  |  |
| < 50 | 50 to 150 | C[C@@H](NC(=O)c1ccc(=O)n(-c2cncc(-c3cnnn3C3CC3)c2)n1)c1cccc(C(F)F)c1F [Example 1-51, N-[(1R)-1-[3-(difluoromethyl)-2-fluorophenyl]ethyl]-1-[5-(1-cyclopropyl-1H-1,2,3-triazol-5-yl)-3-pyridyl]-6-oxo-pyridazine-3-carboxamide] |  |  |
| 50 to 150 | > 150 | C[C@@H](NC(=O)c1cc(C#N)c(=O)n(-c2cncc(-c3cnnn3C)c2)n1)c1cccc(C(F)F)c1F [Example 3-1, 5-cyano-N-[(1R)-1-[3-(difluoromethyl)-2-fluorophenyl]ethyl]-1-[5-(1-methyl-1H-1,2,3-triazol-5-yl)pyridin-3-yl]-6-oxo-1,6-dihydropyridazine-3-carboxamide] |  |  |
|  |  | C[C@@H](NC(=O)c1ccc(=O)n(-c2cncc(-c3cnnn3[C@@H]3CC3(F)F)c2)n1)c1cccc(C(F)(F)CO)c1F (single isomer, unassigned) [Example 26] | < 50 | < 50 |
| < 50 | < 50 | C[C@@H](NC(=O)c1ccc(=O)n(-c2cncc(-c3cnnn3C3CC3)c2)n1)c1cc(N)cc(C(F)(F)F)c1 [Example 1-56, 1-[5-(1-cyclopropyl-1H-1,2,3-triazol-5-yl)-3-pyridyl]-6-oxo-N-[(1R)-1-[3-amino-5-(trifluoromethyl)phenyl]ethyl]pyridazine-3-carboxamide] |  |  |
| 50 to 150 | 50 to 150 | [2H]C([2H])([2H])n1nncc1-c1cnc(F)c(-n2nc(C(=O)N[C@H](C)c3cccc(C(F)(F)F)c3F)cc(C#N)c2=O)c1 [Example 3-5, 5-cyano-N-[(1R)-1-(2-fluoro-3-(trifluoromethyl)phenyl)ethyl]-1-[2-fluoro-5-(1-(methyl-trideuterio)-1H-1,2,3-triazol-5-yl)pyridin-3-yl]-6-oxo-1,6-dihydropyridazine-3-carboxamide] |  |  |
| < 50 | 50 to 150 | C[C@@H](NC(=O)c1cc(C(C)(C)O)c(=O)n(-c2cncc(-c3cnnn3C)c2)n1)c1cccc(C(F)(F)F)c1F [Example 1-59, (R)-N-(1-(2-fluoro-3-(trifluoromethyl)phenyl)ethyl)-5-(2-hydroxypropane-2-yl)-1-(5-(1-methyl-1H-1,2,3-triazol-5-yl)pyridin-3-yl)-6-oxo-1,6-dihydropyridazine-3-carboxamide] |  |  |

| SMILES | IC50 [1, 3] [nM] | IC50 [2, 4] [nM] | IC50 [1] [nM] | IC50 [2] [nM] |
| --- | --- | --- | --- | --- |
| [2H][C@](C)(NC(=O)c1ccc(=O)n(-c2cncc(-c3cnnn3C)c2)n1)c1cccc(C(F)(F)F)c1F [Example 1-34, N-[(1R)-1-deuterio-1-[2-fluoro-3-(trifluoromethyl)phenyl]ethyl]-1-[5-(3-methyltriazol-4-yl)-3-pyridyl]-6-oxo-pyridazine-3-carboxamide] | 50 to 150 | < 50 |  |  |
| [2H]C([2H])([2H])[C@@H](NC(=O)c1ccc(=O)n(-c2cncc(-c3cnnn3C([2H])([2H])[2H])c2)n1)c1cccc(C(F)(F)F)c1F [Example 1-36, N-{(R)-1-[2-fluoro-3-(trifluoromethyl)phenyl]-ethyl-(2,2,2-trideuterio)}-1-(5-{1-[trideuteriomethyl]-1H-1,2,3-triazol-5-yl}-3-pyridyl)-6-oxo-1,6-dihydropyridazine-3-carboxamide] | < 50 | 50 to 150 |  |  |
